Where a SMILES comes first, the peptide text is derived from it. The star is where a group is joined. Cbz = O=C(OCc1ccccc1)*
Columns and labels:
HeLa H2B-GFP cells [1] = assay: Chromosome congression analysis; type: cell-based, human
Experimental: HeLa H2B-GFP cells were plated in 35 mm glass-bottom dishes (MatTek) in DMEM+10% FBS at 20% confluence one day prior to the experiment and synchronized by double thymidine block as described above. Drugs were added as follows to a final volume of 3 ml from 2× concentrated preparation in culture medium. DMSO (0.06%), proTAME (3 and 12 μM) or 10 nM Nocodazole were added 8 h after release from the second block, while MG132 (10 μM) was added at 10 h. H2B-GFP was imaged for 4 hrs every 3 min at 40× magnification as described above.

HeLa H2B-GFP cells [2] = type: cell-based, human; conditions: double thymidine synchronized, drugs 10 hrs after release; proTAME 3 μM; MG132 concentration not given
Experimental: To determine whether proTAME treatment can enhance mitotic arrest and cell death induced by taxol or a proteasome inhibitor (MG132), HeLa H2B-GFP cells were co-treated with low doses of the microtubule poison Taxol or the proteasome inhibitor MG132 in combination with a low dose of proTAME.
Unsychronized HeLa H2B-GFP cells were treated with DMSO (control), taxol 10 nM or proTAME 3 μM or a combination of Taxol 10 nM and proTAME 3 μM (FIG. 26). The cells were imaged by FITC fluorescence microscopy to monitor the cell cycle and mitotic events.
To analyze interactions between proTAME and a proteasome inhibitor (FIG. 27), HeLa H2B-GFP cells were synchronized by double thymidine block (2 mM thymidine block for 18 hrs, release in medium for 8 hrs 2 mM thymidine block for 18 hrs), and treated with the drugs 10 hrs after release from the block as the cells just entered mitosis.

HeLa H2B-GFP cells [3] = assay: Live cell imaging of mitotic duration and cell fate; type: cell-based, human
Experimental: Detailed siRNA transfection and drug treatment schemes are described in supplemental experimental procedures. HeLa H2B-GFP cells were plated in DMEM with 10% FBS at 20% confluence. […] Live cell imaging was performed at 12 minute intervals on a Nikon TE2000E PFS inverted microscope fitted with an incubation chamber maintained at 37° C. and supplied with 5% CO2. Cell division was tracked by manual inspection of movies, and mitotic duration was measured as the time between the first frame of chromosome condensation and the frame of chromosome segregation (anaphase), decondensation (mitotic exit without anaphase) or cell death (chromosomes shrinking to a small bright dot).
The imaging plate was mounted onto a motorized stage (Prior ProScan II) on a Nikon TE2000E PFS inverted microscope fitted with an incubation chamber maintained at 37° C. and supplied with 5% CO2. […] TIFF files of each image were exported from Elements and used to build stacks and Quicktime movies with Metamorph imaging software (Molecular Devices). For manual analysis, mitotic duration is counted as the time between the first frame of chromosome condensation and the frame of chromosome segregation (anaphase) or decondensation (mitotic exit in the presence of nocodazole) or cell death (chromosomes shrinking to a small bright dot).
HeLa H2B-GFP cells were plated in a 24-well plate in DMEM 10% FBS at 20% confluence one day prior to experiment and synchronized by double thymidine block as described above. […] Live cell imaging was set up as described above.
HeLa H2B-GFP cells were plated in a 24-well plate in DMEM+10% FBS at 20% confluence one day prior to the experiment and synchronized by double thymidine block as described above. The cells were released from the first thymidine block into 200 μl OptiMem without FBS. Transfection was performed immediately after the first thymidine release. […] The two mixtures were left at room temperature for 5 min before being mixed together and incubated for additional 20 min and then added to the cells to a final volume of 250 μl. 4 h after transfection, 250 μl of DMEM+20% FBS were added to cells.
HeLa H2B-GFP cells were plated in glass-bottom 24-well plates at 20% confluence one day prior to the experiment and synchronized by double thymidine block as described above. […] Cells were treated with 100 nM Hesperadin or DMSO 8 h after release from the second thymidine block and live cell imaging was set up as described above.
HeLa H2B-GFP cells were plated in a 24-well plate in DMEM+10% FBS at 20% confluence one day prior to experiment and synchronized by double thymidine block as synchronized above. […] Live cell imaging was set up as described above.
HeLa H2B-GFP cells were plated in a 24-well plate in DMEM+10% FBS at 20% confluence one day prior to experiment and synchronized by double thymidine block as described above. […] Untreated cells were used as the control. Live cell imaging was set up as described above. […] Alternatively, at 10 h after release from the second block, 10 μM MG132 with or without 25 μg/ml cycloheximide was added to the cells. […] Live cell imaging was set up as described above.
HeLa H2B-GFP cells were plated in a 24-well plate in DMEM+10% FBS at 20% confluence one day prior to experiment and synchronized by double thymidine block as described above. Mad2 siRNA transfection was performed as described above. At 10 h after release from the second block, 10 μM MG132 with or without 25 μg/ml cycloheximide was added to the cells. Live cell imaging was set up as described above. Manual analysis was focused only on cells that entered mitosis after MG132 addition.

HeLa cells = assay: Live imaging of HeLa cells expressing Histone 2B-GFP (Examples 1 and 2); type: cell-based, human; conditions: 3 μM MG132
Text: Cumulative frequency curves of mitotic duration were plotted.
The same experiment in 1B was done with proAAME.
Synchronized HeLa cells were transfected with Mad2/control siRNA followed by drug treatments. Cumulative frequency curves of mitotic duration were plotted.
Asynchronous HeLa cells were transfected with Mad2 or control siRNA.
For comparison, the curves obtained in H2B-GFP fluorescent imaging experiment shown in FIG. 1B were plotted on the same graph.

APC = molecular target: T1, APC (Homo sapiens, UniProt P30260); assay: Cdc20/Cdh1 binding assay in HeLa cells; type: cell-based; conditions: 12 μM, HeLa released from nocodazole block
T1 construct: endogenous in cells; host or cells: HeLa cells (synchronised; in some experiments also Mad2/BubR1 siRNA and cyclin B1Δ107 adenovirus)
Experimental: HeLa cells in DMEM 10% FBS were plated in T25 flasks at 20% confluence one day prior to the experiment. They were then synchronized by a double thymidine block (18 h for the first block, 8 h release and another 18 h for the second block, thymidine concentration: 2 mM). For analysis of Cdh1 binding, cells were released into […] from the second thymidine block for 13 h and then washed into fresh medium. Six h later, cells were treated with 12 μM proTAME or […] or 0.06% DMSO for 2 h and then collected by trypin digrestion. For analysis of Cdc20 binding, cells were transfected with indicated siRNAs during the first release from thymidine block after two washes with DPBS (CellGro 21-030-CV) and addition of 6.3 ml OptiMEM. A volume (79 μl) of 20 μl Control siRNA#3 or a 1:1 mix of 20 μl MAD2 siRNA and BubR1 siRNA (Dharmacon D-004101-01, 5′-[…]-3′ (SEQ ID NO: 11)) was mixed in 1381 μl OptiMEM in a tube, 23.7 μl OligoFectamine were mixed with 94.1 μl OptiMEM in a second tube. After 5 min incubation at RT, the tubes contents were mixed and siRNA-reagent complexes were allowed to form for 20 min at RT. The transfection mixes were added to cells in OptiMEM and FBS was added to 10% after 5 h transfection. Cyclin B1-4107 expressing adenovirus (1:100) was added at the start of the second thymidine block and kept in the medium for all subsequent steps. […]

cyclin A2-GFP = assay: Exogenous cyclin-GFP expression, live-cell imaging and quantitation (cyclin A2-GFP); type: cell-based, human; conditions: HeLa H2B-RFP; 20 μM proTAME or proAAME, 150 nM nocodazole
Experimental: (§1) HeLa H2B-RFP cells were transduced with cyclin B1-GFP or cyclin A2-GFP adenovirus for 40 h. Phenol Red-Free DMEM (Mediatech) supplemented with 10% FBS and 1:100 Penicillin-Streptomycin-Glutamine (Mediatech) was used as imaging medium. 20 μM proTAME, […] or 150 nM nocodazole was added 45 min prior to the start of imaging. Live cell imaging was set up as described above except that the cells were plated in an 8-well chambered coverglasses (NUNC Lab-tek 155411). Four positions per treatment group were imaged with DIC transmitted light, red fluorescence, and green fluorescence (Semrock GFP/HcRed “Pinkel” filter set) at 12 min intervals for 24 h. Stacks of red and green fluorescence were merged, saved as AVI video files and analyzed using ImageJ. For quantitation, the first GFP-positive cells that undergo mitosis in three separate movies were chosen, giving at least 30 cells quantitated for each treatment group. Mean intensity values for the green channel were collected for a cytoplasmic region of a cell upon mitotic entry, mitotic exit, or after 1 h of mitotic arrest. At the same time points, background mean green intensity was determined and individually subtracted from the cytoplasmic mean intensity. This background corrected mean intensity value was then used to determine the percentage of the original GFP signal remaining at the completion of division (for the control cells) or after 1 h of mitotic arrest (for the nocodazole and proTAME treated cells). The average values for all quantitated cells were plotted with the error bars representing standard error of the mean.

cyclin B1-GFP = assay: Exogenous cyclin-GFP expression, live-cell imaging and quantitation (cyclin B1-GFP); type: cell-based, human; conditions: HeLa H2B-RFP; 20 μM proTAME or proAAME, 150 nM nocodazole
Experimental: as §1

hTERT-RPE1 H2B-GFP cells = assay: Live cell imaging of mitotic duration in hTERT-RPE1 cells; type: cell-based
Experimental: FIG. 18A is a graph and table showing that proTAME induces a mitotic delay in hTERT-RPE1 H2B-GFP cells. Asynchronous hTERT-RPE1 H2B-GFP cells were treated with 0.06% DMSO, 6 μM proTAME or 12 μM proAAME. Cells were imaged at 12 min interval. Cumulative frequency curves of mitotic duration and cell fate distribution are shown.
The imaging plate was mounted onto a motorized stage (Prior ProScan II) on a Nikon TE2000E PFS inverted microscope fitted with an incubation chamber maintained at 37° C. and supplied with 5% CO2. A 20× Plan Apo 0.75 NA or 40× Plan Fluor 0.75 NA objective lens was used as indicated and images were collected with 2×2 binning DIC or GFP fluorescent images were taken every 12 min (unless otherwise specified) for 36 h with a Hamamatsu ORCA cooled CCD camera and Nikon Elements Software. TIFF files of each image were exported from Elements and used to build stacks and Quicktime movies with Metamorph imaging software (Molecular Devices). For manual analysis, mitotic duration is counted as the time between the first frame of chromosome condensation and the frame of chromosome segregation (anaphase) or decondensation (mitotic exit in the presence of nocodazole) or cell death (chromosomes shrinking to a small bright dot).

[4] = proTAME 12 μM, MG132 10 μM, Nocodazole 10 nM
[5] = 12 μM, double thymidine synchronized, added 8 h after release
[6] = asynchronous hTERT-RPE1 H2B-GFP, proAAME 12 μM, proTAME 6 μM

T1 sequence (P30260 whole entry): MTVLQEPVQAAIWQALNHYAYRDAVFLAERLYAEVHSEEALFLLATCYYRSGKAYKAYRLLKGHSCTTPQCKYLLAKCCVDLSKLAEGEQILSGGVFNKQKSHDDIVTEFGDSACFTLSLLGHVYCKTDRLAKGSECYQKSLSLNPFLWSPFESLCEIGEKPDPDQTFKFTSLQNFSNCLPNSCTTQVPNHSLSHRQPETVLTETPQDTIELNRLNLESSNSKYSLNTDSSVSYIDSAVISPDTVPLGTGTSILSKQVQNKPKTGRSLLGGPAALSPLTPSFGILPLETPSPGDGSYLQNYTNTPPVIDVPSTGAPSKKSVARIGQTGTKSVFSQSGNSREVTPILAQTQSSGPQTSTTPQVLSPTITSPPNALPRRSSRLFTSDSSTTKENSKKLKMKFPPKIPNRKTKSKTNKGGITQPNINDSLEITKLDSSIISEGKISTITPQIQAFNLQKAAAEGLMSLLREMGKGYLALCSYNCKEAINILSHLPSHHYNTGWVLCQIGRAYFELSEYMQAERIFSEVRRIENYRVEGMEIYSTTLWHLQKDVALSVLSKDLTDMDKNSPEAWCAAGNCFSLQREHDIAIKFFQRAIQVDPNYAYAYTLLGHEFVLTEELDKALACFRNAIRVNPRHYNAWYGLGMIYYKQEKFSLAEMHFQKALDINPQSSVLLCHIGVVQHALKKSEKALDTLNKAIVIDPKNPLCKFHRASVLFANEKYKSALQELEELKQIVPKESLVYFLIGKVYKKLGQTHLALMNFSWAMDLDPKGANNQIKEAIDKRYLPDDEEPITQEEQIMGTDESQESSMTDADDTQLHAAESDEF

| Structure (SMILES) | Delay in chromosome congression (in words) (HeLa H2B-GFP cells [1]; 3 μM proTAME or 10 μM MG132) | Average chromosome congression time (prophase to full metaphase congression) (HeLa H2B-GFP cells [1]; [4]) | Median chromosome congression time (prophase to full metaphase congression) (HeLa H2B-GFP cells [1]; [4]) | Median mitotic delay / arrest (HeLa H2B-GFP cells [2]) | Cells that exited mitosis during the 30 h experiment (HeLa H2B-GFP cells [3]; 3 μM MG132, control cells) | Time a normal-appearing metaphase plate is maintained (HeLa H2B-GFP cells [3]; MG132 alone) | Mad2-dependence of mitotic arrest (HeLa cells) | Mitotic phenotype (HeLa H2B-GFP cells [3]; 12 μM) | Average mitotic duration (HeLa H2B-GFP cells [3]; [5]) | Median mitotic duration (HeLa H2B-GFP cells [3]; [5]) | Cdh1 association with the APC in G1 cells (APC) | Average cyclin A2-GFP intensity remaining at 60 min vs onset of mitosis (cyclin A2-GFP) | Median cyclin A2-GFP intensity remaining at 60 min vs onset of mitosis (cyclin A2-GFP) | Average cyclin B1-GFP intensity remaining at 60 min vs onset of mitosis (cyclin B1-GFP) | Median cyclin B1-GFP intensity remaining at 60 min vs onset of mitosis (cyclin B1-GFP) | Average mitotic duration (hTERT-RPE1 H2B-GFP cells; [6]) | Median mitotic duration (hTERT-RPE1 H2B-GFP cells; [6]) | Median mitotic duration (hTERT-RPE1 H2B-GFP cells; proAAME-treated hTERT-RPE1 cells) |
| --- | --- | --- | --- | --- | --- | --- | --- | --- | --- | --- | --- | --- | --- | --- | --- | --- | --- | --- |
| CC(C)C[C@@H](C=O)NC(=O)[C@H](CC(C)C)NC(=O)[C@H](CC(C)C)NC(=O)OCc1ccccc1 [MG132, reference compound] (Cbz-Leu-Leu-Leu-aldehyde) | no delay in chromosome congression | 21.6 min | 21 min | 276 min | 10% | over 5 h | partially dependent on Mad2 | – | – | – | – | – | – | – | – | – | – | – |
| COC(=O)[C@H](CC(C)N=C(NC(=O)OCOC(=O)Cc1ccccc1)NC(=O)OCOC(=O)Cc1ccccc1)NC(C)=O (stereo partly drawn) [proAAME, methyl(S)-2-(acetyl)amino-4-[[bis[[[[(phenylacetyl)oxy]methoxy]carbonyl]amino]methylene]amino]pentanoate] | – | – | – | – | – | – | – | no effect | 100.5 min | 84 min | did not | 0.08 fraction remaining | 0.06 fraction remaining | 0.15 fraction remaining | 0.15 fraction remaining | 32.1 min | 36 min | 24 min |

Source: patent US20130230458A1, “Cell Permeable Inhibitors of Anaphase Promoting Complex” (PRESIDENT AND FELLOWS OF HARVARD COLLEGE, priority 2010, published 2013)
